According to paper PMC9505425, “Targeting of the Mitochondrial TET1 Protein by Pyrrolo[3,2-b]pyrrole Chelators” (International Journal of Molecular Sciences, 2022):
“And” between values parts separate entries of the source, which are not always exact repeats. Equal entries are not always repeated.

Experiments:
H-1299 cells = test: MTT cytotoxicity assay, H-1299; format: cell-based, human; settings: for IC50: NCI-H1299, MTT; for IC50 / Cell viability %: 48 h
Procedure: (§1) The effects of the tested compounds 1–6 on HF-P4, U-118 MG, H1299, BT-20, and Caov-3 cell lines were evaluated by the MTT assay during 48 h treatment (Table 2 and Tables S2–S31). In all tested compounds, we recognized a difference in cytotoxicity between healthy cells (HF-P4) and cancer cell lines (BT-20, Caov-3, and H-1299). […] In the case of ovarian cancer, the authors discovered oncogenic and poor prognosis roles of TET1 in epithelial ovarian carcinoma (EOC). TET1 is believed to demethylate the epigenome and activate numerous oncogenic pathways in EOC. The aforementioned study presents a new mechanism where TET1 contributes to tumor development through collaboration with CK2α [21]. The overexpression of the TET1 protein was also found in triple negative breast cancer and was associated with an activation of PI3K/mTOR pathway and decreased overall survival.
(§2) A human glioblastoma cell line (U118-MG) and a human non-small-cell lung carcinoma cell line (H1299) were used for the cytotoxicity assay (MTT). Both cell lines were generously supplied by Dr. M. Masařik, PhD, Department of Pathological physiology, Masaryk University, Czech Republic. U118-MG cells were cultivated under standard conditions in Dulbecco’s modified Eagle’s medium (ATCC, Manassas, VA, USA) supplemented with 10% FBS and streptomycin (100 μg/mL) at 37 °C at a 5% CO2 atmosphere. H1299 cells were cultivated under standard conditions in RPMI 1640 (BioTech, Prague, Czech Republic) medium supplemented with 10% FBS and streptomycin (100 μg/mL) at 37 °C at a 5% CO2 atmosphere.
(§3) For the cytotoxicity assay, we used the following cell lines: human glioblastoma cell line U118-MG, human mammary gland/breast cell line BT-20, human ovary adenocarcinoma cell line Caov-3, and non-small-cell lung carcinoma H-1299. As previously mentioned, these cell lines contain a high level of the TET1 protein, which corresponds to a lower overall survival. In addition to these cell cultures, we used the human dermal fibroblast cell line HF-P4 as a healthy control. Determination of cytotoxicity was performed using the MTT [3-(4,5-dimethylthiazol-2-yl)-2,5-diphenyltetrazolium bromide] colorimetric assay. Viable cells from each cell line were cultured in 96-well plates (VWR, Stříbrná Skalice, Czech Republic) at a density of 1.0 × 10^5 cells per well and allowed to grow for 24 h in 200 μL of recommended medium. After a 1-day incubation, the medium was replaced with solutions of compounds 1–6 at concentration ranges of 0.1–20 μM. Each concentration was measured four times within one test, and the entire test was repeated three times. Tested compounds 1–6 were dissolved in DMSO and then diluted with corresponding medium to a final volume of 200 μL (maximum 1% DMSO). After 48 h exposure, cells were treated with 175 μL of MTT solution (P-LAB, Prague, Czech Republic) for 2 h. In the next step, MTT solution was removed, and 125 μL of DMSO (Penta, Prague, Czech Republic) was added to solubilize dark crystals of formazan formed in intact cells, and absorbance was measured at 570 nm by the enzyme-linked immunoabsorbent assay reader Infinite® 200 PRO (Tecan, Männedorf, Switzerland). The final DMSO concentration was smaller than 1% (v/v). The absorbance of untreated cells was considered 100%, and IC50 values were calculated by the GraphPad Prism 8 software. As a parameter for cytotoxicity, we used a concentration that inhibits 50% of cell growth (IC50).

U-118 MG cells = test: MTT cytotoxicity assay, U-118 MG; format: cell-based, human; settings: 48 h; for viability at 0.1 µM / viability at 0.75 µM / viability at 1 µM / viability at 2.5 µM / viability at 5 µM / viability at 7.5 µM / viability at 10 µM / viability at 15 µM / viability at 20 µM / IC50 / viability at 0.5 µM: Homo sapiens, U-118-MG; for viability at 0.1 µM / viability at 0.75 µM / viability at 1 µM / viability at 2.5 µM / viability at 5 µM / viability at 7.5 µM / viability at 10 µM / viability at 15 µM / viability at 20 µM / Cell viability % / viability at 0.5 µM: U-118 MG, repeats; for viability at 0.1 µM / viability at 0.75 µM / viability at 1 µM / viability at 2.5 µM / viability at 5 µM / viability at 7.5 µM / viability at 10 µM / viability at 15 µM / viability at 20 µM / viability at 0.5 µM: read-out: Cell viability %; for IC50: MTT
Procedure: as §1, §2, §3

[1] = Homo sapiens, NCI-H1299, 48 h, H-1299, 2.5 uM, repeats, read-out: Cell viability %
[2] = Homo sapiens, NCI-H1299, 48 h, H-1299, 5 uM, repeats, read-out: Cell viability %
[3] = Homo sapiens, NCI-H1299, 48 h, H-1299, 10 uM, repeats, read-out: Cell viability %
[4] = Homo sapiens, NCI-H1299, 48 h, H-1299, 15 uM, repeats, read-out: Cell viability %
[5] = Homo sapiens, NCI-H1299, 48 h, H-1299, 20 uM, repeats, read-out: Cell viability %
[6] = Homo sapiens, NCI-H1299, 48 h, H-1299, 100 nM, repeats, read-out: Cell viability %
[7] = Homo sapiens, NCI-H1299, 48 h, H-1299, 500 nM, repeats, read-out: Cell viability %
[8] = Homo sapiens, NCI-H1299, 48 h, H-1299, 7.5 uM, repeats, read-out: Cell viability %

| SMILES | viability at 10 µM (H-1299 cells; [3]) [%] | viability at 15 µM (H-1299 cells; [4]) [%] | viability at 20 µM (H-1299 cells; [5]) [%] | IC50 (H-1299 cells; Homo sapiens) [µM] | viability at 0.1 µM (U-118 MG cells; 100 nM) [%] | viability at 1 µM (U-118 MG cells; 1 uM) [%] | viability at 2.5 µM (U-118 MG cells; 2.5 uM) [%] | viability at 5 µM (U-118 MG cells; 5 uM) [%] | viability at 7.5 µM (U-118 MG cells; 7.5 uM) [%] | viability at 10 µM (U-118 MG cells; 10 uM) [%] | viability at 15 µM (U-118 MG cells; 15 uM) [%] | viability at 20 µM (U-118 MG cells; 20 uM) [%] | IC50 (U-118 MG cells) [µM] | Cell viability % (U-118 MG cells; 100 nM, 0.1 µM) | Cell viability % (U-118 MG cells; 500 nM, 0.5 µM) | Cell viability % (U-118 MG cells; 750 nM, 0.75 µM) | Cell viability % (U-118 MG cells; 1 uM) | Cell viability % (U-118 MG cells; 2.5 uM) | Cell viability % (U-118 MG cells; 5 uM) | Cell viability % (U-118 MG cells; 7.5 uM) | further results |
| --- | --- | --- | --- | --- | --- | --- | --- | --- | --- | --- | --- | --- | --- | --- | --- | --- | --- | --- | --- | --- | --- |
| Cc1ccc(-n2c(-c3ccc(C(=O)N/N=C/c4cc(F)ccc4O)cc3)cc3c2cc(-c2ccc(C(=O)N/N=C/c4cc(F)ccc4O)cc2)n3-c2ccc(C)cc2)cc1 [Compound 3] | 47.9 | 58.9 | 31.4 | 10.6 | 90.9 | 75.9 | 64.7 | 57.1 | 48.3 | 45.6 | 42.6 | 35.1 | 19.5 | 99.65% and 109.711% | 87.97% and 59.47% and 56.29% | 72.44% and 70.85% | 71.04% and 66.44% | 61.47% and 71.58% | 68.44% and 68.48% | 52.95% and 55.16% | viability at 2.5 µM (H-1299 cells; [1]): 124%; viability at 5 µM (H-1299 cells; [2]): 85.7%; viability at 0.75 µM (U-118 MG cells; 750 nM): 70.2%; Cell viability % (U-118 MG cells; 10 uM): 53.29% and 53%; Cell viability % (U-118 MG cells; 15 uM): 46.07% and 47.09%; Cell viability % (U-118 MG cells; 20 uM): 30.47% and 32.82% |
| COc1cccc(/C=N/NC(=O)c2ccc(-c3cc4c(cc(-c5ccc(C(=O)N/N=C/c6cccc(OC)c6O)cc5)n4-c4ccc(C)cc4)n3-c3ccc(C)cc3)cc2)c1O [Compound 5] | 47.9 | 46.5 | 31.4 | 10.1 | 97.8 | 87.4 | 58.2 | 65.3 | 47.2 | 45.5 | 28.9 | 21 | 6.85 | 97.5% and 97.94% | 83.56% and 99.84% | 101.0241% and 97.49% and 72.15% | 91.36% and 94.35% | 62.67% and 72.48% | 61.9341% and 54.55% | 44.6% and 36.58% | viability at 0.1 µM (H-1299 cells; [6]): 113%; viability at 0.5 µM (H-1299 cells; [7]): 125%; viability at 2.5 µM (H-1299 cells; [1]): 106%; viability at 5 µM (H-1299 cells; [2]): 85.7%; viability at 7.5 µM (H-1299 cells; [8]): 56.6%; viability at 0.5 µM (U-118 MG cells; 500 nM): 91.7%; Cell viability % (U-118 MG cells; 10 uM): 44.7379% and 34.31%; Cell viability % (U-118 MG cells; 15 uM): 30.3% and 23.7185%; Cell viability % (U-118 MG cells; 20 uM): 24.2419% and 18.84% |
| Cc1ccc(-n2c(-c3ccc(C(=O)N/N=C/c4ccccc4O)cc3)cc3c2cc(-c2ccc(C(=O)N/N=C/c4ccccc4O)cc2)n3-c2ccc(C)cc2)cc1 [Compound 6] | 54.8 | 38.7 | 34.4 | 14.6 | 98.1 | 68.4 | 63 | 59 | 45.9 | 49.6 | 28 | 22.5 | 8.12 | 91.37% and 92.92% | 83.7778% and 86.55% | 73.07% and 81.93% | 80.41% and 81.53% | 69.75% and 76.68% | 63.22% and 58.23% | 45.4% and 56.877% | Cell viability % (H-1299 cells; H-1299, 100 nM, repeats, 0.1 µM): 77.16% and 73.27%; Cell viability % (H-1299 cells; H-1299, 500 nM, repeats, 0.5 µM): 69.88% and 74.98%; Cell viability % (H-1299 cells; H-1299, 750 nM, repeats, 0.75 µM): 83.61% and 74.75%; Cell viability % (H-1299 cells; H-1299, 1 uM, repeats, 1 µM): 86.38% and 69.89% and 61.2%; Cell viability % (H-1299 cells; H-1299, 2.5 uM, repeats, 2.5 µM): 77.45% and 63.25% and 56.68%; Cell viability % (H-1299 cells; H-1299, 5 uM, repeats, 5 µM): 69.4% and 77.63% and 53.79%; Cell viability % (H-1299 cells; H-1299, 7.5 uM, repeats, 7.5 µM): 53.98% and 50.36%; Cell viability % (H-1299 cells; H-1299, 10 uM, repeats, 10 µM): 52.11% and 46.79%; Cell viability % (H-1299 cells; H-1299, 15 uM, repeats, 15 µM): 36.42% and 29.24%; Cell viability % (H-1299 cells; H-1299, 20 uM, repeats, 20 µM): 33.42% and 31.6%; viability at 0.1 µM (H-1299 cells; [6]): 74.6%; viability at 0.5 µM (H-1299 cells; [7]): 82%; viability at 0.75 µM (H-1299 cells; Homo sapiens, NCI-H1299, 48 h, H-1299, 750 nM, repeats, read-out: Cell viability %): 90.2%; viability at 7.5 µM (H-1299 cells; [8]): 63.7%; viability at 0.5 µM (U-118 MG cells; 500 nM): 73.5%; viability at 0.75 µM (U-118 MG cells; 750 nM): 67.2%; Cell viability % (U-118 MG cells; 10 uM): 51.17% and 52.19%; Cell viability % (U-118 MG cells; 15 uM): 29.06% and 32.78%; Cell viability % (U-118 MG cells; 20 uM): 18.64% and 22.51% |
